Source: patent US20220251085A1, “CYSTEINE BINDING COMPOSITIONS AND METHODS OF USE THEREOF” (University of Virginia Patent Foundation, priority 2019, published 2022)

Legend:
C57Bl/6 mice = assay: In vivo activity of purine probes in mouse tissues, gel-based; conditions: for time of peak / most robust labeling in vivo: 20 mg/kg probe
Protocol: Mouse Treatment and Tissue Preparation Methods: 8-12 week old male and female C57Bl/6 mice were treated intraperitoneally (IP) or by oral gavage (OG) with either AHL125 (Pu-1 or AHL-Pu-1), AHL128 (Pu-2 or AHL-Pu-2), or vehicle (18:1:2, PBS:PEG40:DMSO) at 20 mg/kg unless stated otherwise. Treatment time is indicated in the experiment below. Mice were then euthanized and perfused using PBS. Tissues were then harvested, rinsed and flash frozen using liquid nitrogen and stored at −80° C. until further use. Tissues were lysed using dounce homgenization in the presence of PBS+protease inhibitor. Initial suspensions were centrifuged at 3000×g for 5 minutes to remove insoluble material. The lysate was collected and centrifuged again at 100,000×g for 45 minutes to obtain the soluble fraction. Purine probe modified proteins from treated mice were conjugated to rhodamine-azide by CuAAC, subjected to SDS-PAGE analysis, and detected by in-gel fluorescence scanning. SDS-PAGE gels were stained with Coomassie brilliant blue to determine protein load. All samples were loaded with equivalent amounts of protein. Thus, changes in purine probe labeling is not due to loading of different proteome amounts.
Mice were also treated with 80 mg/kg oral gavage (OG) to determine whether purine probes are orally bioavailable. Mice were treated for four hours.

[1] = test system: proteomes of DM93, Hela, A549, HEK293T, and Jurkat cells; assay: Quantitative chemical proteomics (LC-MS) of Pu-1 and Pu-2 modified proteins; format: cell-based, HUMAN
Protocol: Cells were grown at 37° C. in 5% CO2 until 90% confluent. Once confluent cells were washed with serum free media and treated with purine probes (Pu-1, Pu-2) at a final concentration of 25 μM for 4 hours. Cells were then scraped and washed 3× with cold PBS and lysed in PBS+protease inhibitor. Lysates were spun at 100,000×g for 45 minutes. Purine probe-modified proteins in soluble fractions were coupled to desthiobiotin-azide using copper-catalyzed azide-alkyne cycloaddition (CuAAC; 1 hour, room temperature), probe-modified proteins digested into peptides using trypsin protease, probe-modified peptides enriched by avidin affinity chromatography, and subjected to LC-MS quantitative chemical proteomics as previously described.^15 The following cell lines were used for analysis: DM93, Hela, A549, HEK293T, and Jurkat. […]
Chemical proteomics performed as described in Example 9 determined several protein modification sites targeted by Pu-1 and/or Pu-2. […]

Row | Structure (SMILES) | time of peak / most robust labeling in vivo (C57Bl/6 mice) | Number of Unique Modified Residues ([1]; Arginine (R)) | Percentage of Modified Residues ([1]; Arginine (R)) | Number of Unique Modified Residues ([1]; Asparagine (N)) | Percentage of Modified Residues ([1]; Asparagine (N)) | Number of Unique Modified Residues ([1]; Aspartic Acid (D)) | Percentage of Modified Residues ([1]; Aspartic Acid (D)) | Number of Unique Modified Residues ([1]; Cysteine (C), Byonic score>300) | Percentage of Modified Residues ([1]; Cysteine (C), Byonic score>300) | Number of Unique Modified Residues ([1]; Glutamic Acid (E)) | Percentage of Modified Residues ([1]; Glutamic Acid (E)) | Number of Unique Modified Residues ([1]; Glutamine (Q)) | Percentage of Modified Residues ([1]; Glutamine (Q)) | Number of Unique Modified Residues ([1]; Histidine (H)) | Percentage of Modified Residues ([1]; Histidine (H)) | Number of Unique Modified Residues ([1]; Lysine (K)) | Percentage of Modified Residues ([1]; Lysine (K)) | Number of Unique Modified Residues ([1]; Methionine (M)) | Percentage of Modified Residues ([1]; Methionine (M)) | Number of Unique Modified Residues ([1]; Serine (S)) | further results
1 | C#CCn1cnc2c(Cl)nc(Cl)nc21 [Pu-2, 2,6-Dichloro-9-(prop-2-yn-1-yl)-9H-purine] | 4 h | 19 | 1.6% | 0 | 0% | 44 | 3.7% | 952 | 80% | 68 | 5.7% | 39 | 3.3% | 12 | 1.0% | 24 | 2.0% | 7 | 0.59% | 5 | Percentage of Modified Residues ([1]; Serine (S)): 0.42%; Number of Unique Modified Residues ([1]; Threonine (T)): 6; Percentage of Modified Residues ([1]; Threonine (T)): 0.50%; Number of Unique Modified Residues ([1]; Tryptophan (W)): 3; Percentage of Modified Residues ([1]; Tryptophan (W)): 0.25%; Number of Unique Modified Residues ([1]; Tyrosine (Y)): 17; Percentage of Modified Residues ([1]; Tyrosine (Y)): 21.4%
2 | C#CCn1cnc2nc(Cl)nc(Cl)c21 [Pu-1, 2,6-Dichloro-7-(prop-2-yn-1-yl)-7H-purine] | 2 h | 2 | 0.84% | 0 | 0% | 9 | 3.8% | 196 | 82% | 12 | 5.0% | 3 | 1.3% | 1 | 0.42% | 4 | 1.7% | 2 | 0.84% | 1 | tissue with highest activity (C57Bl/6 mice): highest activity in lung; labeling profile in vivo across tissues (C57Bl/6 mice; IP or OG, lung, liver, spleen, heart, brain, kidney, WAT): most robust labeling profile in vivo; Percentage of Modified Residues ([1]; Serine (S)): 0.42%; Number of Unique Modified Residues ([1]; Threonine (T)): 2; Percentage of Modified Residues ([1]; Threonine (T)): 0.84%; Number of Unique Modified Residues ([1]; Tryptophan (W)): 1; Percentage of Modified Residues ([1]; Tryptophan (W)): 0.42%; Number of Unique Modified Residues ([1]; Tyrosine (Y)): 6; Percentage of Modified Residues ([1]; Tyrosine (Y)): 2.5%
